From patent US20090081154A1, “Attractant composition for yellowjackets” (priority 2006, published 2009)
Several values for one entry are separate records, joined by “and”; a condition that tells them apart may be missing. Equal entries are not always repeated.

Key:
Vespula pensylvanica = assay: Initial field trap experiment: octyl butyrate, heptyl butyrate or 1:1 mixture, LHS north lawn; assay type: in vivo; details: one trap per composition, 6/15-7/21 (approximately 1 month), LHS NL
Method: Several experiments were performed to determine the relative attractiveness of heptyl butyrate, octyl butyrate and a 1:1 mixture of the two esters. In an initial experiment, one trap each containing octyl butyrate, heptyl butyrate, or a 1:1 mixture of the two esters, was placed around the perimeter of the north lawn of the Lawrence Hall of Science, University of California, Berkeley. After approximately 1 month, the yellowjackets in each trap were collected and counted. […]

yellowjackets [1] = assay: Third field trap trial, LHS upper patio, 12 traps; assay type: in vivo, Vespula pensylvanica; details: 8/11-9/7/05, LHS UP; for total YJ: 4 repetitions of each treatment
Method: A third trial was performed in the same location using a total of 12 traps. There were 4 repetitions of each treatment presented.

yellowjackets [2] = assay: Second field trap experiment, LHS upper patio, 4 sets of three treatments; assay type: in vivo, Vespula pensylvanica; details: 7/21-8/10/05, twenty days, LHS UP, 4 traps per treatment (one octyl butyrate trap lost)
Source text: A second experiment was set up at the Lawrence Hall of Science upper patio, placing 4 sets of the three treatments randomly around the patio, a total of 12 traps. One trap containing octyl butyrate was lost and not counted.

yellowjackets [3] = assay: Three ester trap trials taken together (totals and conclusions); assay type: in vivo, Vespula pensylvanica; details: for relative attractiveness of the esters, in words: heptyl butyrate, octyl butyrate and their combination compared; for Total numbers of yellowjackets caught for all trials: sum of Tables 1-3
Method: Several experiments were performed to determine the relative attractiveness of heptyl butyrate, octyl butyrate and a 1:1 mixture of the two esters. In an initial experiment, one trap each containing octyl butyrate, heptyl butyrate, or a 1:1 mixture of the two esters, was placed around the perimeter of the north lawn of the Lawrence Hall of Science, University of California, Berkeley. After approximately 1 month, the yellowjackets in each trap were collected and counted. […] The results are shown below in Table 1: A second experiment was set up at the Lawrence Hall of Science upper patio, placing 4 sets of the three treatments randomly around the patio, a total of 12 traps. One trap containing octyl butyrate was lost and not counted. After twenty days, the total numbers of yellowjackets caught for each of the treatments is shown in table 2 below: A third trial was performed in the same location using a total of 12 traps. There were 4 repetitions of each treatment presented. The total number of yellowjackets caught per each treatment is shown in table 3: Total numbers of yellowjackets caught for all trials are given below: The trial from Jul. 21-Aug. 10, 2005 cannot be assumed to be an anomaly.

yellowjackets [4] = assay: Field trap test octyl butyrate vs. OB + 1% trans-2-hexenol, Strawberry Baseball Diamonds; assay type: in vivo, Vespula pensylvanica; details: 8 ml attractant, 27 days; for # of YJ (single trap): per trap, t-2-H 1% by weight
Method: In another experiment conducted at the Strawberry Baseball Diamonds, octyl butyrate was compared to octyl butyrate+t-2-hexenol, where the trans-2-hexenol was present in 1% concentration by weight. […] For each treatment, 8 ml of attractant was used. The traps were collected and counted after 27 days. The total number of yellowjackets caught in the three traps with octyl butyrate alone is 113. A total of 170 yellowjackets were caught in the three traps baited with octyl butyrate +t-2-hexenol.

yellowjackets [5] = assay: Field trap test octyl butyrate vs. OB + 1% methyl salicylate, LHS Back Plaza; assay type: in vivo, Vespula pensylvanica; details: 1% MSA
Method: In one experiment, octyl butyrate (OB) was compared with OB containing 1% methyl salicylate (MSA). Six traps were placed at the Lawrence Hall of Science Back Plaza on Jul. 21, 2005. Three of the traps were baited with octyl butyrate alone. The other three were baited with the mixture of 1% methyl salicylate in octyl butyrate. Each of the traps contained 8ml of attractant dispensed on a cotton pad, which was placed inside the trap. The traps were collected on Sep. 8, 2005, and the yellowjackets counted.

yellowjackets [6] = assay: Field trap test octyl butyrate vs. OB + 1% MSA + 1% t-2-H, LHS North Lawn; assay type: in vivo, Vespula pensylvanica; details: three traps per treatment, 8 ml attractant, 1% each MSA and t-2-H; listed as OB
Method: In a separate experiment, a mixture of octyl butyrate and the two kairomones methyl salicylate (MSA) and trans-2-hexenol (t-2-H), where the two kairomones were each present in 1% by weight quantities, was tested against octyl butyrate alone. Three repetitions of each treatment were tested in yellowjacket traps placed around the Lawrence Hall of Science North Lawn on Jul. 21, 2005. Each lure contained 8 ml of attractant. The traps were collected and the yellowjackets removed and counted on Aug. 11, 2005. […] A total of 40 yellowjackets were caught using the combination OB+MSA+t-2-H, whereas only 31 yellowjackets were caught in traps baited with OB alone.

SMILES | # YJ caught (Vespula pensylvanica) | Avg catch per trap (yellowjackets [1]) | total YJ (yellowjackets [1]) | Total # YJ (yellowjackets [2]) | relative attractiveness of the esters, in words (yellowjackets [3]) | Total numbers of yellowjackets caught for all trials (yellowjackets [3]) | # of YJ (single trap) (yellowjackets [4]; listed as OB) | # of YJ (single trap) (yellowjackets [4]; listed as Octyl (OB)) | Total YJ per Treatment (yellowjackets [4]; three traps per treatment, t-2-H 1%) | # of YJ (single trap) (yellowjackets [5]; per trap, 8 ml attractant on cotton pad, LHS Back Plaza, collected Sep. 8, 2005) | Totals (YJ per treatment) (yellowjackets [5]; three traps per treatment, 8 ml attractant) | Totals (YJ per treatment) (yellowjackets [6])
CCCCCCCOC(=O)CCC [heptyl butyrate] | 148 | 61 | 242 | 235 | more effective in luring and capturing yellowjackets than octyl butyrate | 625 | – | – | – | – | – | –
CCCCCCCCOC(=O)CCC [octyl butyrate] | 36 | 45 | 134 | 145 | inferior attractant to heptyl butyrate | 315 | 38 and 41 | 34 | 113 | 0 | no yellowjackets were caught | 31 and 30
